Reference: patent US10508123B2, “Polymorphs” (Vectura Limited, priority 2015, dated 2019)
Blank lines part the entries; values can stand above or below the compound they belong to.

Columns and labels:
[1] = Solubility of the compound in water (remark in the slurrying results); format: physicochemical
[2] = Competitive slurrying experiments (solid form by XRPD after one week); format: physicochemical
Procedure: 10 mg (+/−1 mg) each of the Form I, Form II, Form III, 1,2-dimethoxtethane solvate and the hydrate of (S)-3-(3-(1-methyl-2-oxo-5-(pyrazolo[1,5-a]pyridine-3-yl)-1H-imidazo[4,5-b]pyridine-3(2H)-yl)piperidin-1-yl)-3-oxopropanenitrile was added to each of twelve vials. The solvent systems used had been pre-saturated with (S)-3-(3-(1-methyl-2-oxo-5-(pyrazolo[1,5-a]pyridine-3-yl)-1H-imidazo[4,5-b]pyridine-3(2H)-yl)piperidin-1-yl)-3-oxopropanenitrile by shaking a slurry of Form I at the relevant temperature for 16 hours and then passing through a 1 μm glass filter.
The resulting slurries were agitated at the temperature shown for a period of one week. The solids present were then isolated by filtration, air dried and characterised by XRPD.

- solubility in water [1]: poor solubility
- XRPD characterisation ([2]; vial 1, water, 5 °C, slurry of Form I, II, III, 1,2-dimethoxyethane solvate and hydrate agitated one week, poor recovery hampered interpretation): Form II/Hydrate*
- XRPD characterisation ([2]; vial 2, water, 25 °C, mixed-form slurry, one week): Form II/Form III/Hydrate
- XRPD characterisation ([2]; vial 3, water, 50 °C, mixed-form slurry, one week): Form II
- XRPD characterisation ([2]; vial 4, MEK, 5 °C, mixed-form slurry, one week): Form II
- XRPD characterisation ([2]; vial 5, MEK, 25 °C, mixed-form slurry, one week): Form II
- XRPD characterisation ([2]; vial 6, MEK, 50 °C, mixed-form slurry, one week): Form II
- XRPD characterisation ([2]; vial 7, EtOAc, 5 °C, mixed-form slurry, one week): Form II/1,2-dimethoxyethane solvate
- XRPD characterisation ([2]; vial 8, EtOAc, 25 °C, mixed-form slurry, one week): Form II/1,2-dimethoxyethane solvate
- XRPD characterisation ([2]; vial 9, EtOAc, 50 °C, mixed-form slurry, one week): Form II
- XRPD characterisation ([2]; vial 10, IPA, 5 °C, mixed-form slurry, one week): Form II
- XRPD characterisation ([2]; vial 11, IPA, 25 °C, mixed-form slurry, one week): Form II/1,2-dimethoxyethane solvate
- XRPD characterisation ([2]; vial 12, IPA, 50 °C, mixed-form slurry, one week): Form II
Structure (SMILES): Cn1c(=O)n([C@H]2CCCN(C(=O)CC#N)C2)c2nc(-c3cnn4ccccc34)ccc21 [Compound (I), (S)-3-(3-(1-methyl-2-oxo-5-(pyrazolo[1,5-a]pyridine-3-yl)-1H-imidazo[4,5-b]pyridine-3(2H)-yl)piperidin-1-yl)-3-oxopropanenitrile]

Structure (SMILES): Cn1c(=O)n([C@H]2CCCN(C(=O)CC#N)C2)c2nc(-c3cnn4ccccc34)ccc21 [Form I, (S)-3-(3-(1-methyl-2-oxo-5-(pyrazolo[1,5-a]pyridine-3-yl)-1H-imidazo[4,5-b]pyridine-3(2H)-yl)piperidin-1-yl)-3-oxopropanenitrile]
- form visible in the isolated solids ([2]; all vials, except one of the experiments in water): No Form I or Form III material was visible

- thermodynamic stability among the three anhydrous forms ([2]; at all three temperatures evaluated (5, 25, 50 °C)): most thermodynamically stable
- thermodynamic stability compared to the other polymorphic forms or the solvates and hydrates ([2]; at temperatures up to 50 °C): greater thermodynamic stability
Structure (SMILES): Cn1c(=O)n([C@H]2CCCN(C(=O)CC#N)C2)c2nc(-c3cnn4ccccc34)ccc21 [Form II, (S)-3-(3-(1-methyl-2-oxo-5-(pyrazolo[1,5-a]pyridine-yl)-1H-imidazo[45-b]pyridine-3(2H)-yl)piperidin-1-yl)-3-oxopropanenitrile]
- thermodynamic stability compared to the Form 1 and Form III polymorphs ([2]; competitive slurrying experiments): surprisingly advantageous thermodynamic stability

- stability of the hydrate relative to anhydrous Form II ([2]; in organic solvents): less stable than the anhydrous Form II
- conversion of the hydrate in the slurry ([2]; water at 50 °C, not at 25 °C or 5 °C): complete conversion to Form II
Structure (SMILES): Cn1c(=O)n([C@H]2CCCN(C(=O)CC#N)C2)c2nc(-c3cnn4ccccc34)ccc21 [Hydrate I, (S)-3-(3-(1-methyl-2-oxo-5-(pyrazolo[1,5-a]pyridine-3-yl)-1H-imidazo[4,5-b]pyridine-3(2H)-yl)piperidin-1-yl)-3-oxopropanenitrile]
